In paper PMC4731787, “Structural basis for the recognition of two consecutive mutually interacting DPF motifs by the SGIP1 μ homology domain” (Scientific Reports, 2016):
Like-named read-outs stand apart in the source and are kept apart here. GST = glutathione S-transferase fusion tag

Assays:
[1] = molecular target: T1, SGIP1 μHD (residues 552 to 828) (Homo sapiens, UniProt Q9BQI5); experiment: ITC of Eps15 fragments with the SGIP1 μHD; type: binding; conditions: for Kd: 50 mM Tris-HCl pH 8.0, 50 mM NaCl, global fit of two runs
T1 construct: the SGIP1 μHD (residues 552 to 828); GST (N, cleaved yes); made in house; host or cells: Escherichia coli BL21-Gold (DE3) or Rosetta2
T1 sequence (Q9BQI5 552-828): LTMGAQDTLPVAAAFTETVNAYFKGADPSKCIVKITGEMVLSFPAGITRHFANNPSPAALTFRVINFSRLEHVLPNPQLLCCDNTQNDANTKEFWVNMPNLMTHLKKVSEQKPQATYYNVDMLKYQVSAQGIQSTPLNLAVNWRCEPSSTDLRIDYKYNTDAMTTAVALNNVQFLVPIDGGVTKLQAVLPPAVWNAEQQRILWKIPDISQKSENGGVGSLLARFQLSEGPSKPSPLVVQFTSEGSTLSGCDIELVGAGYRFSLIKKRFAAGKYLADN
Experimental: For the majority of the ITC experiments, the SGIP1 μHD, its mutants, or the FCHo1 μHD, in 50 mM Tris-HCl buffer (pH 8.0) containing 50 mM NaCl, was loaded in the sample cell, in a volume of 1.42 ml, and titrated with various Eps15-derived fragments or peptides in the same buffer, with an initial 5 μl injection and subsequent 10 μl injections, for a total of 25 injections. The titrations were performed while the samples were stirred at 310 r.p.m. at 25 °C. Each injection was followed by an interval of 4 min, to allow baseline stabilization. For the other ITC experiments indicated in Supplementary Table 2, the Eps15-derived fragments or peptides in the sample cell were titrated with the SGIP1 or FCHo1 μHD. All ITC experiments were performed on a VP-ITC microcalorimeter (MicroCal, LLC) and repeated twice, and the data were processed with the program NITPIC[42]. The two data sets from each ITC experiment were analyzed by global weighted least-squares fitting with the program SEDPHAT[43]. Figures for the ITC data were created with the program GUSSI (http://biophysics.swmed.edu/MBR/software.html). To obtain the values of the traditional stoichiometric parameter N in our ITC data analyses (Supplementary Table 2), we used the values of the parameters of the incompetent fractions of proteins and ligands. […] The values of the incompetent fractions are between 0 and 1, whereas the other parameter affecting the traditional parameter N, the number of sites, was fixed as 1 and 2, for the single- and two-site models, respectively. Thus, in the two-site model, the values of N for the first and second sites are identical in our ITC data analyses (Supplementary Table 2).

[2] = molecular target: T2, SGIP1 µ homology domain (µHD), residues 552 to 828 (human, UniProt Q9BQI5-1 552-828); experiment: ITC; µHD, µHD mutant or α-adaptin appendage domain in the sample cell, titrated with the Eps15 fragment or peptide; 50 mM Tris-HCl (pH 8.0), 50 mM NaCl, 25 °C; VP-ITC; two data sets fitted globally (NITPIC, SEDPHAT); single-site model; conditions: both partners purified
T2 construct: pGEX-6P-1 construct cut with 3C protease; also called SGIP1 µHD; human SGIP1 µHD (aa552–828); source: E. coli BL21-Gold (DE3) or Rosetta2, purified (Glutathione Sepharose 4B, 3C protease cleavage, Superdex 200)
T2 sequence (looked up): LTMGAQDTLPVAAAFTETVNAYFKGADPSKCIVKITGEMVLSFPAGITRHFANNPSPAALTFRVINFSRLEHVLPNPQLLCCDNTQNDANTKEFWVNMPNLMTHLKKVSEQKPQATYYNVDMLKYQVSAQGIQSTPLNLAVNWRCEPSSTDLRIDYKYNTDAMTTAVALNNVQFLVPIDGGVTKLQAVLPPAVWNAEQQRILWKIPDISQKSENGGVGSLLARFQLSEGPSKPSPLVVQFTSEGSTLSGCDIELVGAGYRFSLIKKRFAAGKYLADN

[3] = 25 °C, μHD in cell titrated with fragment, single-site model
[4] = 25 °C, μHD in cell titrated with fragment, single-site model, ± 68.3% confidence interval
[5] = μHD in cell titrated with fragment, single-site model, ± 68.3% confidence interval
[6] = 25 °C, μHD in sample cell titrated with Eps15 fragment, single-site model, ± 68.3% confidence interval
[7] = 25 °C, fragment in cell titrated with μHD, two-site model, first site
[8] = 25 °C, fragment in cell titrated with μHD, two-site model, second site

| -TΔS [1, 3] | ΔG [1, 3] | ΔH [1, 4] | Kd [2] | Molecule | further results |
| --- | --- | --- | --- | --- | --- |
| -1.138 kcal/mol | -5.642 kcal/mol | -4.504 ± 0.155 kcal/mol |  | Ac-YDPFGGNPFKG-NH2 [Eps15-640–649D645N] |  |
| -0.851 kcal/mol | -4.759 kcal/mol | -3.908 ± 0.595 kcal/mol |  | Ac-YEPFGGDPFKG-NH2 [Eps15-640–649D640E] |  |
| -0.071 kcal/mol | -5.584 kcal/mol | -5.513 ± 0.12 kcal/mol |  | Ac-YKDDPFGKIDPFGG-NH2 [Eps15-632–644] |  |
| 1.453 kcal/mol | -7.491 kcal/mol | -8.944 ± 0.142 kcal/mol |  | Ac-YKDDPFGKIDPFGGDPFKGSDPFA-NH2 [Eps15-632–654] | N (binding ratio of Eps15 fragment to μHD) [1, 5]: 0.70 ± 0.01 |
| 1.711 kcal/mol | -8.135 kcal/mol | -9.846 ± 0.223 kcal/mol |  | Ac-YSDPFKDDPFGKIDPFGGDPFKGSDPFA-NH2 [Eps15-628–654] | Kd ([1]; 25 °C, μHD in sample cell titrated with Eps15 fragment, single-site model, ± 68.3% confidence interval, read-out: Kd): 1.1 ± 0.1 µM; N (binding ratio of Eps15 fragment to μHD) [1, 5]: 0.67 ± 0.01 |
|  |  |  | 22.4 µM | Ac-YDPFKGSDPFA-NH2 (extra (artificial) N-terminal Tyr residue, to facilitate the concentration determination by absorbance; source: synthetic peptide (Eurofins Genomics)) [Eps15-645–654] | stoichiometry N [2]: 0.75 |
|  |  |  | 4.9 µM | Ac-YSDPFVGSDPFKDDPFG-NH2 (artificial N-terminal Tyr; source: synthetic peptide (Eurofins Genomics)) [Eps15-622–637] | stoichiometry N [2]: 0.85 |
|  |  |  | 103 µM | Ac-YNPFGGDPFKG-NH2 (artificial N-terminal Tyr; source: synthetic peptide (Eurofins Genomics)) [Eps15-640–649D640N] |  |
|  |  |  | 73.1 µM | Ac-YDPFGGNPFKG-NH2 (artificial N-terminal Tyr; source: synthetic peptide (Eurofins Genomics)) [Eps15-640–649D645N] |  |

Second part, the molecule before the results:

| Molecule | -TΔS [1, 3] | ΔG [1, 3] | ΔH [1, 4] | Kd [2] | further results |
| --- | --- | --- | --- | --- | --- |
| Ac-YDPFKGSDPFA-NH2 [Eps15-645–654] | 3.566 kcal/mol | -6.344 kcal/mol | -9.91 ± 0.683 kcal/mol |  | N (binding ratio of Eps15 fragment to μHD) [1, 5]: 0.75 ± 0.02 |
| Ac-YDPWGGDPFKG-NH2 [Eps15-640–649F642W] | 2.227 kcal/mol | -4.965 kcal/mol | -7.192 ± 0.527 kcal/mol |  |  |
| Ac-YNPFGGDPFKG-NH2 [Eps15-640–649D640N] | -0.585 kcal/mol | -5.441 kcal/mol | -4.856 ± 0.193 kcal/mol |  |  |
| Ac-YSDPFKDDPFGKI-NH2 [Eps15-628–639] | 1.528 kcal/mol | -4.882 kcal/mol | -6.41 ± 0.646 kcal/mol |  |  |
| Ac-YSDPFKDDPFGKIDPFGG-NH2 [Eps15-628–644] | 1.615 kcal/mol | -6.404 kcal/mol | -8.019 ± 0.169 kcal/mol |  | binding to the SGIP1 μHD (in words) [1]: significantly weaker affinity than Eps15-622–637 and Eps15-640–654; N (binding ratio of Eps15 fragment to μHD) [1, 5]: 0.76 ± 0.01 |
| Ac-YSDPFVGSDPFKDDPFG-NH2 [Eps15-622–637] | 1.967 kcal/mol | -7.247 kcal/mol | -9.214 ± 0.138 kcal/mol |  | binding to the SGIP1 μHD (in words) [1]: significantly reduced affinity as compared with that of Eps15-530–896; N (binding ratio of Eps15 fragment to μHD) [1, 5]: 0.85 ± 0.01 |
| Ac-YSTDPFATSSTDPFSA-NH2 [Eps15-662–676] | 1.395 kcal/mol | -5.327 kcal/mol | -6.722 ± 1.053 kcal/mol |  | binding to the SGIP1 μHD (in words) [1]: weakly bound to the μHD; Strength of affinity ([1]; human SGIP1 µHD (aa552–828), Supplementary Table 3, This study): low |
| Eps15-618–648: Eps15 fragment containing the first five DPF motifs of Eps15-618–654 (DFFQSDPFVGSDPFKDDPFGKIDPFGGDPFK; UniProt P42566 618-648, looked up, fragment) | 0.581 kcal/mol | -8.722 kcal/mol | -9.303 ± 0.257 kcal/mol |  | N (binding ratio of Eps15 fragment to μHD) [1, 5]: 0.71± 0.02 |
| Eps15-640–649D645E: D645E mutant of Eps15-640–649 (Ac-YDPFGGEPFKG-NH2) |  |  |  |  | Kd [1, 6]: below detection limit |
| Eps15-640–649F647W: F647W mutant of Eps15-640–649 (Ac-YDPFGGDPWKG-NH2) |  |  |  |  | Kd [1, 6]: below detection limit |
| Eps15-640–649P641L: P641L mutant of Eps15-640–649 (Ac-YDLFGGDPFKG-NH2) |  |  |  |  | Kd [1, 6]: below detection limit |
| Eps15-640–649P646L: P646L mutant of Eps15-640–649 (Ac-YDPFGGDLFKG-NH2) |  |  |  |  | Kd [1, 6]: below detection limit |
| Eps15-643–650: Eps15 fragment, residues 643–650, 1 DPF motif (Ac-YGGDPFKGS-NH2) |  |  |  |  | Kd [1, 6]: below detection limit |
| Eps15-650–659: Eps15 fragment, residues 650–659, 1 DPF motif (Ac-YSDPFASDCFF-NH2) |  |  |  |  | Kd [1, 6]: below detection limit |
| Eps15-797–807: Eps15 fragment spanning residues 797 to 807, 2 DPF motifs (Ac-YPDPFKLNDPFQ-NH2) |  |  |  |  | binding to the SGIP1 μHD (in words) [1]: did not; Kd [1, 6]: below detection limit |
| Ac-YSDPFKDDPFGKIDPFGG-NH2 (artificial N-terminal Tyr; source: synthetic peptide (Eurofins Genomics)) [Eps15-628–644] |  |  |  | 20.2 µM | stoichiometry N [2]: 0.76 |
| GST-Eps15-595–660: GST-tagged Eps15 fragment, residues 595–660, 7 DPF motifs (protein, UniProt P42566 595-660, looked up, fragment) {GST}-SKEEDPFNVDSSSLTGPVADTNLDFFQSDPFVGSDPFKDDPFGKIDPFGGDPFKGSDPFASDCFFR |  |  |  |  | Kd ([1]; 25 °C, Eps15 fragment in cell titrated with SGIP1 μHD, two-site model, first (higher-affinity) site, ± 68.3% confidence interval, read-out: Kd): 0.046 ± 0.015 µM; Kd ([1]; 25 °C, Eps15 fragment in cell titrated with SGIP1 μHD, two-site model, second site, 68.3% confidence interval, read-out: Kd, second site): 16.6 ± 4.1 µM; -TΔS [1, 7]: -2.45 kcal/mol; ΔG [1, 7]: -10.012 kcal/mol; ΔH ([1]; 25 °C, fragment in cell titrated with μHD, two-site model, first site, ± 68.3% confidence interval): -7.562 ± 0.103 kcal/mol; -TΔS, second site [1, 8]: 0.328 kcal/mol; ΔG, second site [1, 8]: -6.52 kcal/mol; ΔH, second site ([1]; 25 °C, fragment in cell titrated with μHD, two-site model, second site, 68.3% confidence interval): -6.848 ± 0.772 kcal/mol; N (binding ratio of Eps15 fragment to μHD) ([1]; fragment in cell titrated with μHD, two-site model, first site (N identical for both sites), ± 68.3% confidence interval): 1.17 ± 0.02; N, second site ([1]; fragment in cell titrated with μHD, two-site model, second site (N identical for both sites), ± 68.3% confidence interval): 1.17 ± 0.02 |
| Ac-YKDDPFGKIDPFGGDPFKGSDPFA-NH2 (artificial N-terminal Tyr; source: synthetic peptide (Eurofins Genomics)) [Eps15-632–654] |  |  |  | 3.2 µM | stoichiometry N [2]: 0.7 |
| Ac-YKDDPFGKIDPFGG-NH2 (artificial N-terminal Tyr; human Eps15 residues 632-644; source: synthetic peptide (Eurofins Genomics)) [Eps15-632–644] |  |  |  | 80.8 µM |  |
| GPLGSYDFFQSDPFVGSDPFKDDPFGKIDPFGGDPFK (domain or fragment, human, source: E. coli, expressed and purified in the same manner as the SGIP1 µHD) [Eps15-618–648] |  |  |  |  | stoichiometry N [2]: 0.71 |
| Ac-YSDPFKDDPFGKI-NH2 (artificial N-terminal Tyr; source: synthetic peptide (Eurofins Genomics)) [Eps15-628–639] |  |  |  | 264 µM |  |
| GST-Eps15-530–594: GST-tagged Eps15 fragment, residues 530–594, 0 DPF motifs (protein) {GST}-STSSSETANLNEHVEGQSNLESEPIHQESPARSSPELLPSGVTDENEVTTAVTEKVCSELDNNRH |  |  |  |  | Kd [1, 6]: below detection limit |
| Ac-YDPFGGDPFKG-NH2 (extra (artificial) N-terminal Tyr residue, to facilitate the concentration determination by absorbance; source: synthetic peptide (Eurofins Genomics)) [Eps15-640–649] |  |  |  | 30.2 µM | stoichiometry N [2]: 0.66 |
| Ac-YDPWGGDPFKG-NH2 (artificial N-terminal Tyr; source: synthetic peptide (Eurofins Genomics)) [Eps15-640–649F642W] |  |  |  | 229 µM |  |
| Ac-YEPFGGDPFKG-NH2 (artificial N-terminal Tyr; source: synthetic peptide (Eurofins Genomics)) [Eps15-640–649D640E] |  |  |  | 325 µM |  |
